Results taken from ChEMBL document CHEMBL4507291 (2021).

Experiments:
[1] = molecular target: 5-hydroxytryptamine receptor 2B (Homo sapiens, UniProt P41595)
[2] = molecular target: Ribosomal protein S6 kinase alpha-1 (Homo sapiens) (UniProt Q15418); test: RPS6KA1 (RSK1) Kinase screen; conditions: Compound concentration 1.0 uM
[3] = tested on: Tyrosine-protein kinase JAK2 (Homo sapiens), O60674 [V617F]; test: JAK2 JH1 JH2 V617F Kinase screen; conditions: Compound concentration 1.0 uM
[4] = molecular target: Insulin receptor-related protein (Homo sapiens) (UniProt P14616); test: INSRR (IRR) Kinase screen; conditions: Compound concentration 1.0 uM
[5] = molecular target: T1, Dual specificity mitogen-activated protein kinase kinase 6 (Homo sapiens) (UniProt P52564); test: MAP2K6 (MKK6) Kinase screen; conditions: Compound concentration 1.0 uM
T1 sequence (whole entry): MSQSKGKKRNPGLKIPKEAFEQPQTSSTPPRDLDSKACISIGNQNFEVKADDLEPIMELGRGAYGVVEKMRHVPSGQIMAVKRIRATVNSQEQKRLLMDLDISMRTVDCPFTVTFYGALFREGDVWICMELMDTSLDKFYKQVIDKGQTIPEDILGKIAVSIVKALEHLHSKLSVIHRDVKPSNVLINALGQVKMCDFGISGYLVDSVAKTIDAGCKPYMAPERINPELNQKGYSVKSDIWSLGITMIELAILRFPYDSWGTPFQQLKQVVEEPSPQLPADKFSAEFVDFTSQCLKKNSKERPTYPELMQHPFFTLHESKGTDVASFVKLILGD

[6] = molecular target: Beta-1 adrenergic receptor (Homo sapiens) (UniProt P08588); conditions: Compound concentration 10.0 uM
[7] = molecular target: Fibroblast growth factor receptor 2 (Homo sapiens) (UniProt P21802); test: FGFR2 Kinase screen; conditions: Compound concentration 1.0 uM
[8] = molecular target: Serine/threonine-protein kinase 25 (Homo sapiens) (UniProt O00506); test: STK25 (YSK1) Kinase screen; conditions: Compound concentration 1.0 uM
[9] = molecular target: Activin receptor type-2B (Homo sapiens) (UniProt Q13705); test: ACVR2B Kinase screen; conditions: Compound concentration 1.0 uM
[10] = molecular target: Myosin light chain kinase, smooth muscle (Homo sapiens) (UniProt Q15746); test: MYLK (MLCK) Kinase screen; conditions: Compound concentration 1.0 uM
[11] = molecular target: Tyrosine-protein kinase receptor UFO (Homo sapiens) (UniProt P30530); test: AXL Kinase screen; conditions: Compound concentration 1.0 uM
[12] = molecular target: T2, Dual specificity mitogen-activated protein kinase kinase 3 (Homo sapiens) (UniProt P46734); test: MAP2K3 (MEK3) Kinase screen; conditions: Compound concentration 1.0 uM
T2 sequence (whole entry): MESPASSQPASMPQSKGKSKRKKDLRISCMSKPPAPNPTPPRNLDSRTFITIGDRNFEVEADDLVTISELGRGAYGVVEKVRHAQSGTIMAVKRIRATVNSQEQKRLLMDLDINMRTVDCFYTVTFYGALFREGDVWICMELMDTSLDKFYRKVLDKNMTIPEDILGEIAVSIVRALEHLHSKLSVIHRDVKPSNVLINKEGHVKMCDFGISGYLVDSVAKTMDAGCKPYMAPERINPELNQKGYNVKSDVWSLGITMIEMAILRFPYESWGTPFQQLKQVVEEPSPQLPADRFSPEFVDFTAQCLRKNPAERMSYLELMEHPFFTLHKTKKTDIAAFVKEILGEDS

[13] = molecular target: Kappa-type opioid receptor (Homo sapiens) (UniProt P41145); conditions: Compound concentration 10.0 uM
[14] = molecular target: Acetylcholinesterase (Homo sapiens) (UniProt P22303); conditions: Compound concentration 10.0 uM
[15] = molecular target: Dual specificity protein kinase CLK1 (Homo sapiens) (UniProt P49759); test: CLK1 Kinase screen; conditions: Compound concentration 1.0 uM
[16] = molecular target: Protein kinase C theta type (Homo sapiens) (UniProt Q04759); test: PRKCQ (PKC theta) Kinase screen; conditions: Compound concentration 1.0 uM
[17] = molecular target: Type-1 angiotensin II receptor (Homo sapiens) (UniProt P30556); conditions: Compound concentration 10.0 uM
[18] = tested on: Tyrosine-protein kinase ABL1 (Homo sapiens), P00519 [G250E]; test: ABL1 G250E Kinase screen; conditions: Compound concentration 1.0 uM
[19] = molecular target: Myosin light chain kinase 2, skeletal/cardiac muscle (Homo sapiens) (UniProt Q9H1R3); test: MYLK2 (skMLCK) Kinase screen; conditions: Compound concentration 1.0 uM
[20] = molecular target: Platelet-activating factor receptor (Homo sapiens) (UniProt P25105); test: Inhibition of Platelet Activating Factor (PAF) at 10 µM in the Eurofins-Panlabs radioligand binding assay (Eurofins_assay_265010); conditions: Compound concentration 10.0 uM
[21] = molecular target: Tyrosine-protein kinase Fer (Homo sapiens) (UniProt P16591); test: FER Kinase screen; conditions: Compound concentration 1.0 uM
[22] = molecular target: T3, Tyrosine-protein kinase Mer (Homo sapiens) (UniProt Q12866); test: MERTK (cMER) Kinase screen; conditions: Compound concentration 1.0 uM
T3 sequence (whole entry): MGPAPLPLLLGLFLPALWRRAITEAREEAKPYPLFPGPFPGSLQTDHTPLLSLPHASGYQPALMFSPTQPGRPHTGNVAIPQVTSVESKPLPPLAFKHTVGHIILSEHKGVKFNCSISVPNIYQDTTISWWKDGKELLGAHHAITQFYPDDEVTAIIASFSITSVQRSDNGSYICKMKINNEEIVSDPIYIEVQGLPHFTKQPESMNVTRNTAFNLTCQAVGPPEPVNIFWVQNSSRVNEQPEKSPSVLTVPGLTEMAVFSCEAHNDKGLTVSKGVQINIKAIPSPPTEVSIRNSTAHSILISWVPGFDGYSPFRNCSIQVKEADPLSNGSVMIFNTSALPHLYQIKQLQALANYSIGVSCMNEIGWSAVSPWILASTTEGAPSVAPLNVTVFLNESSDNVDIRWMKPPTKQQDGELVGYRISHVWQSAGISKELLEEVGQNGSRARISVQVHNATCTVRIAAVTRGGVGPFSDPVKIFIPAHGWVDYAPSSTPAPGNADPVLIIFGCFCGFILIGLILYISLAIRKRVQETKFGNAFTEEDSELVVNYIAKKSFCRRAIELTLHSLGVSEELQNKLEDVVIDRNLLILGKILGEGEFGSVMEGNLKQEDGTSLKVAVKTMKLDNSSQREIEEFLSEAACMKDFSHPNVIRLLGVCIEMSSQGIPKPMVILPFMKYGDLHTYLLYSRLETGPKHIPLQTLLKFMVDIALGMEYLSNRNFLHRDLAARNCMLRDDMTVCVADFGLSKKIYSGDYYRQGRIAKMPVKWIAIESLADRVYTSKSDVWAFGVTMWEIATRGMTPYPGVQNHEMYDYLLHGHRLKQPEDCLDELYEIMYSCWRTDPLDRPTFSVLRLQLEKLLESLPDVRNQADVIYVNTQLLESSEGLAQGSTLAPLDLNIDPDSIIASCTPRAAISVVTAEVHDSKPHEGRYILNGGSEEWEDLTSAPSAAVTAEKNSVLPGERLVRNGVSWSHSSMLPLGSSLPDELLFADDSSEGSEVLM

5-hydroxytryptamine receptor 2B, sequence (P41595 whole entry): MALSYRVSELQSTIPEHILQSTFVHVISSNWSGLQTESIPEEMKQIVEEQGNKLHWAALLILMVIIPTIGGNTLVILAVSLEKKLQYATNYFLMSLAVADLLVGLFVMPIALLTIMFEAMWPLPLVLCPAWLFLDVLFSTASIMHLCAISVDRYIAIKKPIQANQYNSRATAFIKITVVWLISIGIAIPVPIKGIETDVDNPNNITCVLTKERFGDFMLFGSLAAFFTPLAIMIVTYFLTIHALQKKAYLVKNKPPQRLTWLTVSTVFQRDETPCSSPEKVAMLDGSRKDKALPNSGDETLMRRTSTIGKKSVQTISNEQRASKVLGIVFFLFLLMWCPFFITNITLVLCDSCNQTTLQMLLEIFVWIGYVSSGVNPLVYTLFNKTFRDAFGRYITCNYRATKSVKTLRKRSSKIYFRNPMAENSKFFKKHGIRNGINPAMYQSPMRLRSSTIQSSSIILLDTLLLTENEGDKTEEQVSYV
Serine/threonine-protein kinase 25 (Homo sapiens), sequence (O00506 whole entry, looked up): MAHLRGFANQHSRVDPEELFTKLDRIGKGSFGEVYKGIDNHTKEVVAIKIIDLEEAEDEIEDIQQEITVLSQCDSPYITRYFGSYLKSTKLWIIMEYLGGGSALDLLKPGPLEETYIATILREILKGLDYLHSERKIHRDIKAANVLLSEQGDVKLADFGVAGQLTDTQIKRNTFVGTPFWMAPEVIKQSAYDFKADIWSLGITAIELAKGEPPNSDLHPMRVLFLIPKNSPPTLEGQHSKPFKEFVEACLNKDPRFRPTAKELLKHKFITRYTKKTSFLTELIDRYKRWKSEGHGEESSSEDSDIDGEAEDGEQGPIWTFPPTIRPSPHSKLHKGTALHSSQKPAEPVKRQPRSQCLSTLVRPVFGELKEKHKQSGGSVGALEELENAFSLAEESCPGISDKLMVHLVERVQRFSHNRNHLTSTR
Myosin light chain kinase 2, skeletal/cardiac muscle (Homo sapiens), sequence (Q9H1R3 whole entry): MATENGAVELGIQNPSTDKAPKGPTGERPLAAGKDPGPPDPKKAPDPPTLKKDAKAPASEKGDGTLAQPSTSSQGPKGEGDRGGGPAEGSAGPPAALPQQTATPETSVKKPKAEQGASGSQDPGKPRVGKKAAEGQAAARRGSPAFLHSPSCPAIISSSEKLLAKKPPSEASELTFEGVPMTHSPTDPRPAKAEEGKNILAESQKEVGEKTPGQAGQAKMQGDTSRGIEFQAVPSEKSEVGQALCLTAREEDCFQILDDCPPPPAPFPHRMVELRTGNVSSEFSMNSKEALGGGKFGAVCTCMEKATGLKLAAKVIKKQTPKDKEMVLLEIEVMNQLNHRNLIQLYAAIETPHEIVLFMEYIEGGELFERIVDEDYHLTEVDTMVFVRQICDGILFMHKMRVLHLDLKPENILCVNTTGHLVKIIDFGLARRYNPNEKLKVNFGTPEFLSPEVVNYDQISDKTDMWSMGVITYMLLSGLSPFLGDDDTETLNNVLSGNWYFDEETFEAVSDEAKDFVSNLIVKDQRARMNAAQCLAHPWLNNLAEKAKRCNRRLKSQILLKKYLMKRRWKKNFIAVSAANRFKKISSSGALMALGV
Fibroblast growth factor receptor 2 (Homo sapiens), sequence (P21802 22-821 limits assumed): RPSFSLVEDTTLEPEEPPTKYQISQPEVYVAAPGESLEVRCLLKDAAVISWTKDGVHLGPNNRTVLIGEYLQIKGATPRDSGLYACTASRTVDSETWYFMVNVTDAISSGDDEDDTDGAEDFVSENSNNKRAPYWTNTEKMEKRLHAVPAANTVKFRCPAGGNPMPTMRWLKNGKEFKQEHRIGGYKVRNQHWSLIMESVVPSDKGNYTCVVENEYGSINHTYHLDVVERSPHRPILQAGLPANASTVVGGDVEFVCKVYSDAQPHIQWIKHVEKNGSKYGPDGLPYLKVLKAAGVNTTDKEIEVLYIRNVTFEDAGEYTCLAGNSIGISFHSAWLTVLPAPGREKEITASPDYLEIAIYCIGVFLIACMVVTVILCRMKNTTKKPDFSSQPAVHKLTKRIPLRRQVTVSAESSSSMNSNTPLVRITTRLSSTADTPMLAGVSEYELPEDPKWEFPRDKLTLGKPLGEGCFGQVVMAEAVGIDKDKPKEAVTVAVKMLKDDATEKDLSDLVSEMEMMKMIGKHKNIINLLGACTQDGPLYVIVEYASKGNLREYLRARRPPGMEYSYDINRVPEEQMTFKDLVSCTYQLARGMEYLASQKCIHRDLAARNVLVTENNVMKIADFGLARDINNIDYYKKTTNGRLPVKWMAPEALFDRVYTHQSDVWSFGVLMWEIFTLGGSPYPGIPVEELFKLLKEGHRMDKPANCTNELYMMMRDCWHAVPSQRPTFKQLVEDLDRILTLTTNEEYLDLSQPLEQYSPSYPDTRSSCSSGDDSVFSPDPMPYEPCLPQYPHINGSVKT
Myosin light chain kinase, smooth muscle (Homo sapiens), sequence (Q15746 whole entry): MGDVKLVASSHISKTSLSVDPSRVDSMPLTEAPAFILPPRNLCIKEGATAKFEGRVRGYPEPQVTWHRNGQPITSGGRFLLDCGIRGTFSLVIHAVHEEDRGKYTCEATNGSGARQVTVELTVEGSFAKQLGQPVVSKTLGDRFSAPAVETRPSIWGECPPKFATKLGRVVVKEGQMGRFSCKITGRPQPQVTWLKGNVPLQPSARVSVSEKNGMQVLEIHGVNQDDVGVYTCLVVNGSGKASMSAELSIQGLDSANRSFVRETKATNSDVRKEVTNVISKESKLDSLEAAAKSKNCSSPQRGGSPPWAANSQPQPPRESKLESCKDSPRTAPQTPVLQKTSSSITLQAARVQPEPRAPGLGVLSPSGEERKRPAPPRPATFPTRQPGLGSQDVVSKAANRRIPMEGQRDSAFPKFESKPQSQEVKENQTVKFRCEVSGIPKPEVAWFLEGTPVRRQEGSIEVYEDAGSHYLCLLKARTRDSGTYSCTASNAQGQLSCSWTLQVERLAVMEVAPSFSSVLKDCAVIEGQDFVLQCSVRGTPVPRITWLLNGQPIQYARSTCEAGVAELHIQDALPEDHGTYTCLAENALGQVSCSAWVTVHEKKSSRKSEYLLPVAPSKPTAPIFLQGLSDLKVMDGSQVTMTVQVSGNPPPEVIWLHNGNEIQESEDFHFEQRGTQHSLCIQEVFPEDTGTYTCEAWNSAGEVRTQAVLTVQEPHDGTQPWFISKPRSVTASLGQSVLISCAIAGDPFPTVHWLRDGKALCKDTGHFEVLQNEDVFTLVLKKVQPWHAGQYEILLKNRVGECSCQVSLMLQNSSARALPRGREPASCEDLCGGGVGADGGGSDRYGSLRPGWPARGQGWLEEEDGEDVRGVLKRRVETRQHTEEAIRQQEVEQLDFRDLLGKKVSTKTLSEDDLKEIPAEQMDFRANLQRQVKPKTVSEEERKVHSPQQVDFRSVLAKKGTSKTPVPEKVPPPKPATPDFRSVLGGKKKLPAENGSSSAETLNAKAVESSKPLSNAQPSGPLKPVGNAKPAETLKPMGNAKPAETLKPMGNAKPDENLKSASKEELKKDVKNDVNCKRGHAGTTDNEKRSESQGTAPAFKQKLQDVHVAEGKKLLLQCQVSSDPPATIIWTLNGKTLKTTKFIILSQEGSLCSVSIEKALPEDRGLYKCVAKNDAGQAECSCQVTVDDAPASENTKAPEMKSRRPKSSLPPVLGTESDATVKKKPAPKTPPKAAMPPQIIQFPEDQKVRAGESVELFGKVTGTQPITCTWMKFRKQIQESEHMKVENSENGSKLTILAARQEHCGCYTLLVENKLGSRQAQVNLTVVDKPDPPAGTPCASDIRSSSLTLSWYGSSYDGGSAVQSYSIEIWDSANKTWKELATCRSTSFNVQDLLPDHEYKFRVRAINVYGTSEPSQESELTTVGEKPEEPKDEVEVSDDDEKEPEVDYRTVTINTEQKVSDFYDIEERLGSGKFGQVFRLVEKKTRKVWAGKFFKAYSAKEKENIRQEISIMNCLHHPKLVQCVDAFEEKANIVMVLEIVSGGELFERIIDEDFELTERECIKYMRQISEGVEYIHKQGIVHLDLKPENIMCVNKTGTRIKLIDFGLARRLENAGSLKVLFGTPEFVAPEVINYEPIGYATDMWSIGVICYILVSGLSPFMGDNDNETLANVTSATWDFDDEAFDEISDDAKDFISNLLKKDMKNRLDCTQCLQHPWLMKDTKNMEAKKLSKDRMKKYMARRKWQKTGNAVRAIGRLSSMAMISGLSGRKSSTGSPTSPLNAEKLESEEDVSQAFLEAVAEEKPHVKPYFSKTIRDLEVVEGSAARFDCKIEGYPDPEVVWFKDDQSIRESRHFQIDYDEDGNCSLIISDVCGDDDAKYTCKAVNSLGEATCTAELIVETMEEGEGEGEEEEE
Platelet-activating factor receptor (Homo sapiens), sequence (P25105 whole entry): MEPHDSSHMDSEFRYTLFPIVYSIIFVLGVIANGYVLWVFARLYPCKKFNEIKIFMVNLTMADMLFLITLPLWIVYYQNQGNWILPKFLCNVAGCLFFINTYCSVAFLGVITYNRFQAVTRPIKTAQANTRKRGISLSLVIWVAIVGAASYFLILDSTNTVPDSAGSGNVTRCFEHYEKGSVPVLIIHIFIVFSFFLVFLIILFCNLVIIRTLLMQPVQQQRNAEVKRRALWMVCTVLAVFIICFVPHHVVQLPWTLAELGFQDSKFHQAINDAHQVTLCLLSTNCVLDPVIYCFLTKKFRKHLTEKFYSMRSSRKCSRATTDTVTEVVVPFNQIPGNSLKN
Dual specificity protein kinase CLK1 (Homo sapiens), sequence (P49759 whole entry, looked up): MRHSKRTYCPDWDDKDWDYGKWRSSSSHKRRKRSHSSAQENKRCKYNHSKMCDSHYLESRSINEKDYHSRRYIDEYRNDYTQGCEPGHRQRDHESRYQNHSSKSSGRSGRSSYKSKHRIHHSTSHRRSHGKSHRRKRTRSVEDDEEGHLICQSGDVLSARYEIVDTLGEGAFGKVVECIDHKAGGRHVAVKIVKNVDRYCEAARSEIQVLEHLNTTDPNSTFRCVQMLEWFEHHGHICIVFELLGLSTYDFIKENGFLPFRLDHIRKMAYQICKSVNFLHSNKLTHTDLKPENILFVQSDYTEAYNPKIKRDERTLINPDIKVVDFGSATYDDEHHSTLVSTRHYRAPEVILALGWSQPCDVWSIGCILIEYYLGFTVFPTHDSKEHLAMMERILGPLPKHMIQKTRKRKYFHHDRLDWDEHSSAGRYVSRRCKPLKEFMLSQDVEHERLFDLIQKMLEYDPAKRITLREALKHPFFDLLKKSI

C[C@@H]1CN(c2cc(-c3n[nH]c4ccc(OC5(C)CC5)cc34)ncn2)C[C@H](C)O1 [MLi-2]
inhibition ([1]; Compound concentration 0.01 uM): -7%
inhibition ([1]; Compound concentration 0.1 uM): 8%
inhibition ([1]; Compound concentration 1.0 uM): 44%
inhibition ([1]; Compound concentration 10.0 uM): 95%
inhibition [2]: 8.66%
inhibition [3]: -7.77%
inhibition [4]: 21.1%
inhibition [5]: -2.67%
inhibition [6]: -7%
inhibition [7]: -3.35%
inhibition [8]: 2.24%
inhibition [9]: -1.21%
inhibition [10]: 10.9%
inhibition [11]: 4.79%
inhibition [12]: -2.3%
inhibition [13]: 19%
inhibition [14]: -2%
inhibition [15]: 15.7%
inhibition [16]: 2.46%
inhibition [17]: 8%
inhibition [18]: 4.45%
inhibition [19]: 1.42%
inhibition [20]: 33%
inhibition [21]: 26.7%
inhibition [22]: 4.76%
